Data: paper PMC2453235, “Identification and Rational Redesign of Peptide Ligands to CRIP1, A Novel Biomarker for Cancers” (PLoS Computational Biology, 2008)
Where a SMILES comes first, the peptide text is derived from it. Bridges are numbered along the chain shown (N, C = ends).

Tests used:
CRIP1 [1] = biological target: T1, CRIP1 (Homo sapiens, UniProt P50238); experiment: Competitive binding assay against FITC-A1M; conditions: A1M vs A1, competing for FITC-A1M binding, from IC50
T1 construct: enterokinase cleavage site and vector linker residues (N); made in house; host or cells: E. coli (pHAT10-CRIP1, IPTG induction)
T1 sequence (P50238 1-77): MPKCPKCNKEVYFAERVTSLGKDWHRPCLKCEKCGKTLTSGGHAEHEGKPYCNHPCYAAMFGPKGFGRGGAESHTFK
Procedure: The binding affinity of the A1 and A1M peptides for CRIP1 protein was directly compared by a competitive binding experiment,[56]. Labeled A1M peptide (FITC-A1M) was competed with increasing concentrations of either unlabeled A1M peptides or A1 peptide and the IC50 for each peptide calculated.
Ninety-six well plates were coated with 150 µl of PBS buffer containing 100 µg/ml of CRIP1 and incubated overnight at 4°C. The wells were then washed 3 times with 50 mM Tris, 150 mM NaCl, pH 7.5 (TBS) containing 0.1% Tween-20 (TBST), and then each well filled completely with blocking buffer (TBS containing 0.5% BSA), incubated at least 1 hour at 4°C, and then rapidly washed 3 times with TBST. Following washing 150 µl of binding buffer containing FITC-A1M peptides of 10 µM and appropriate dilutions of unlabeled A1 and A1M peptides (ranging from 0 to 300 µM) were added to the CRIP1 containing wells and incubated for 1 hour at 37°C with rocking. After incubation, the plates were washed three times with binding buffer. The fluorescence intensity in each well was determined on Infinite M200 Tecan Instrument (Tecan, NC) (Excitation wavelength: 494 nm, Emission wavelength: 530 nm). Ki was calculated by non-linear regression with one binding site using GraphPad Prism (GraphPad Prism 4.0 Software, San Diego, CA). […]

CRIP1 [2] = biological target: T1, CRIP1; experiment: Saturation binding of FITC-labeled peptides; conditions: ΔΔG = RT ln K d,A1M − RT ln K d,A1, from apparent dissociation constants
From the text: We computationally redesigned A1 resulting in a peptide with a new sequence (denoted as A1M) predicted to bind to CRIP1 with higher affinity. To test this prediction, A1, B5 and A1M peptides were all synthesized and labeled with FITC for binding studies. Since the peptides encoded by the C7C phage library are at the N-terminus of the minor phage coat protein pIII followed by a short phage encoded spacer Gly-Gly-Gly-Ser, we included this 4-mer in the synthesized peptide. An additional C-terminal Lys was also included in order to enable fluorescent labeling of the peptide. […] We synthesized the cyclic form of the peptides, A1, B5 and A1M and determined their ability to bind CRIP1 using saturation binding experiments. […] To directly compare the affinity of the A1 and A1M peptides for CRIP1 protein, we performed a competitive binding assay and determined the IC50 for each of the peptides using FITC-A1M as the ligand. […]
The binding affinity of the peptides for CRIP1 protein was determined by saturation binding experiments,[55]. […] The fluorescence intensity in each well was determined on Infinite M200 Tecan Instrument (Tecan, NC) (Excitation wavelength: 494 nm, Emission wavelength: 530 nm). The apparent equilibrium dissociation constant, K d,apparent, was calculated by non-linear regression using GraphPad Prism (GraphPad Prism 4.0 Software, San Diego, CA). […]

SMILES: CC(C)C[C@@H]1NC(=O)[C@@H](N)CSSC[C@@H](C(=O)NCC(=O)NCC(=O)NCC(=O)N[C@@H](CO)C(=O)N[C@@H](CCCCN)C(N)=O)NC(=O)CNC(=O)[C@H](CCCCN)NC(=O)CNC(=O)CNC(=O)CNC(=O)[C@H](CC(=O)O)NC1=O [A1M] (H-CLDGGGKGCGGGSK-NH2; disulfide 1-9; N-terminus assumed)
- binding affinity relative to A1 (fold better) (CRIP1 [1]): approximately 27.5 times
- experimental free energy change ΔΔG (CRIP1 [2]): -1.6 kcal/mol
